# Bridge positions count the residues as written; N and C are the ends. Ends that are not written are not given here. Peptide text beside a SMILES is read from it.
# T1: PS:C4BP complex (Homo sapiens, UniProt P04003+P20851)
# T1 construct: Purified human C4BP was obtained from 5 liters (1) of human citrated plasma; from tissue; host or cells: human citrated plasma (C4BP); protein S per Schwarz et al
# T1 sequence (P04003 49-597): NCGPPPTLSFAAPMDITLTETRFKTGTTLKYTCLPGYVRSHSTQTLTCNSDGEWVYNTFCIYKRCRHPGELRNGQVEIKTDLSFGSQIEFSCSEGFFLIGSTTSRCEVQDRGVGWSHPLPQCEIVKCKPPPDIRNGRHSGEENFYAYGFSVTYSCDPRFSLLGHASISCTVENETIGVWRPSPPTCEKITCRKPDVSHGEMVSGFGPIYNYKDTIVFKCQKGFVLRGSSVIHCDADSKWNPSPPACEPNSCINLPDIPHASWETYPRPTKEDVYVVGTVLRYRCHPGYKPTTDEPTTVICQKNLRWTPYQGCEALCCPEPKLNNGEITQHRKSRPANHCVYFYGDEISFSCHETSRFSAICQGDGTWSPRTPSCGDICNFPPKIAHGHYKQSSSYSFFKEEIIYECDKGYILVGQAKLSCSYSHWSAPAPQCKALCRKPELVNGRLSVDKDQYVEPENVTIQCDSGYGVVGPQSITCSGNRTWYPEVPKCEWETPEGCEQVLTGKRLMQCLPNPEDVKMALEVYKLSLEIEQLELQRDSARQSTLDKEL
# T1 sequence (P20851 18-252): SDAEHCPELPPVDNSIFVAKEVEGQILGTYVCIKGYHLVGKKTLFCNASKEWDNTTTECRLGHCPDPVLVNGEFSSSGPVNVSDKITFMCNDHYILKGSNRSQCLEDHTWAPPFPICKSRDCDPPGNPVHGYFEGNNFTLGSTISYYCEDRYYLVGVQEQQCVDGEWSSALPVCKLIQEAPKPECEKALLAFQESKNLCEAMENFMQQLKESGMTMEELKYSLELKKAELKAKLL
# T2: C4BP (Homo sapiens, UniProt P04003+P20851)
# T2 sequence (P04003 49-597): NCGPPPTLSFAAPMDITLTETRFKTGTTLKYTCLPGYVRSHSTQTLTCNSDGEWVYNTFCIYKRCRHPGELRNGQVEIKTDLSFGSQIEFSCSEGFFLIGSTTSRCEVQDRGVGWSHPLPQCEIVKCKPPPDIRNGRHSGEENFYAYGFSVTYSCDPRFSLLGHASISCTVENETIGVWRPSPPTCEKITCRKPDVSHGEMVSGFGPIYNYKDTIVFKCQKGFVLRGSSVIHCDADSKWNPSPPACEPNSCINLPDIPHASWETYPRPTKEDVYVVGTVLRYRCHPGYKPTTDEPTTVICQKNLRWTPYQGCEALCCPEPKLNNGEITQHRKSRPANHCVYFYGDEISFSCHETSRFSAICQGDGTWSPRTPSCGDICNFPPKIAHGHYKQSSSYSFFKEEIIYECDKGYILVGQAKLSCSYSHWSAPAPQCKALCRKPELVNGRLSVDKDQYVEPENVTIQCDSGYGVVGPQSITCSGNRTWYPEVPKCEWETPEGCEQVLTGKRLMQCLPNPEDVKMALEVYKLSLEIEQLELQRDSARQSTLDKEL
# T2 sequence (P20851 18-252): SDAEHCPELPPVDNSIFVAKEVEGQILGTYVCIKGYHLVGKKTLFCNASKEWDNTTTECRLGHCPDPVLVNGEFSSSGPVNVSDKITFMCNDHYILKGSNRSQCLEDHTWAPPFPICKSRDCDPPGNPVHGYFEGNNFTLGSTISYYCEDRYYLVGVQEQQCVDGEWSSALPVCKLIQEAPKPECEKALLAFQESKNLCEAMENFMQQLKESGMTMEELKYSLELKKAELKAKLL
# T3: C4b binding protein (human, UniProt P04003 49-597; P20851 18-252)
# T3 construct: mature; The beta chain is added from general knowledge; Biotinylated (b-C4BP) in some assays; also called C4BP; purified human C4BP
# T3 sequence (looked up) 1: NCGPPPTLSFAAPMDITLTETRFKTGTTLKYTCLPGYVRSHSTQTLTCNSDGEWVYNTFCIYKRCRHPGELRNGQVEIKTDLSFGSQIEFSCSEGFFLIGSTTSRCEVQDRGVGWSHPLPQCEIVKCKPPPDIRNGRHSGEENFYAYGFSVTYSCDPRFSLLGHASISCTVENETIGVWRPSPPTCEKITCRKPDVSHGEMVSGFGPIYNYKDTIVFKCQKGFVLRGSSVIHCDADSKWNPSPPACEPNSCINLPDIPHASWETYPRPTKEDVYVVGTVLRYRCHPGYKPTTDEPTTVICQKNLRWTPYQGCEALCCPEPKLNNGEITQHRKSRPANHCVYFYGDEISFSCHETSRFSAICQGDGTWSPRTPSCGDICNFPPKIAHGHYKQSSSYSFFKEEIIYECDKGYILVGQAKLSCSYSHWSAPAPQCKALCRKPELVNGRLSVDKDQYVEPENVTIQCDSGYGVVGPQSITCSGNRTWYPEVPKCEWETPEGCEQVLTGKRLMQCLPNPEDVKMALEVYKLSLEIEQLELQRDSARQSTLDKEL
# T3 sequence (looked up) 2: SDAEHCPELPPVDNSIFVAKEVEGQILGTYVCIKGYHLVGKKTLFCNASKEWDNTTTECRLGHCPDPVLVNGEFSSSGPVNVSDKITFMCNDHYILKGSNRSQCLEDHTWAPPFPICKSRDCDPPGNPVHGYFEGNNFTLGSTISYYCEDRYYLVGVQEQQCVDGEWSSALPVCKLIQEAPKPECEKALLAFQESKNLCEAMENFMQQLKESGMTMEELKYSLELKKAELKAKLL
# Tests used:
# [1] = target: T1, PS:C4BP complex; experiment: Peptide inhibition of binding of b-C4BP to PS-coated wells
# Procedure: An alternative approach was used to test the ability of the peptides, PSP-loop and PSP-428K, in comparison with that seen with the PSP-12 peptide, in inhibiting the binding of C4BP to PS. For this assay, the microtiter wells were coated with purified PS diluted to a concentration of 10 µg/ml in carbonate-coating buffer as described above. The wells were maintained to allow the PS to bind to the well walls. After the maintenance period, the wells were blocked also as described above. The selected PSP peptides were separately admixed at various concentrations ranging from 0 - 500 µM with biotinylated-C4BP (b-C4BP) at a concentration of 1 µg/ml. The admixtures were maintained on a fluid phase plate for 2 hours at room temperature to form peptide-C4BP complexes.
# Fifty µl of the complexed admixtures were separately admixed to the prepared C4BP-coated wells and maintained for 1 hour at room temperature. Thereafter, the plate was washed and processed for developing as described above.
# [2] = target: T1, PS:C4BP complex; experiment: Fluid-phase peptide inhibition of b-PS binding to C4BP, detected on anti-C4BP polyclonal antibody-coated plates
# Procedure: (§1) An alternative approach was used to test the ability of the peptides, PSP-loop, PSP-424K and PSP-428K, in comparison with that seen with the PSP-12 peptide, in inhibiting the binding of PS to C4BP, the result of which was detected on polyclonal antibody-coated plates. For this assay, C4BP, biotinylated-PS (b-PS) and PSP peptides were admixed together at the respective concentrations of 3 µg/ml, 0.6 µg/ml and at a range of 0 - 500 µM (V:V:V). The admixtures were maintained for 2 hours at room temperature on a fluid phase plate to allow the binding and/or inhibition thereof of PS to C4BP by the PS-derived peptides. After the maintenance period, 50 µl of the admixture were separately admixed to wells previously coated with 10 µg/ml of anti-C4BP IgG polyclonal antibody. The admixtures were maintained for 1 hour at room temperature to allow for the binding of C4BP to C4BP-antibody-coated plates. The binding of biotinylated complexes to the antibody-coated plates was detected as described in Example 5Aii.
# [3] = target: T1, PS:C4BP complex; experiment: Peptide Inhibition Assay: binding of b-PS to C4BP in solid phase; conditions: subsequent experiments
# Procedure: Each of the peptides produced as described in Example 1 and listed in Table 1 was analyzed for its ability to inhibit the binding of native protein S in liquid-phase to C4BP in solid-phase.
# Microtiter wells of a 96 well plate were coated with 50 µl of 10 µg/ml purified C4BP in carbonate buffer (0.02 M Na2CO3, pH 9.0, 0.02% Na-Azide). After blocking with 10% BSA in TBS, 50 µl of different concentrations of peptides diluted in washing buffer (TBS, 0.2% BSA, 5mM CaCl, 0.02% Tween 20) were separately admixed to C4BP-coated wells. After 2 hours at room temperature, 50 µl of a solution of biotinylated protein S, were admixed to each well to form a second binding admixture having a final concentration of 2 µg/ml. The plate was agitated and the samples were incubated 1 hour at room temperature. The samples were discarded and the wells were washed 3 times with washing buffer. To each well, 50 µl of strepavidin-alkaline-phosphatase (1 µg/ml washing buffer) were admixed and allowed to incubate for 30 minutes at room temperature. The strepavidin-alkaline-phosphatase was then discarded and the wells were washed 6 times with washing buffer. The resulting optical densities of the reaction solutions were read as described before in Example 2C.
# Results of the assay are reported as percent inhibition of C4BP binding. Percent of inhibition of C4BP binding is defined as: I = 100% - 100 x (deltaT /deltaC ) [formula] • where I is expressed as a percent; and • where 100% = delta/min of the amount of b-PS which specifically bound to C4BP-coated wells in the absence of any competing PS-peptide; and • where deltaT = the change in absorbance (405 nm) in the presence of competing PS-peptide; and • where deltaC = the change in absorbance (405 nm) in the absence of competing PS-peptide.
# [4] = target: T1, PS:C4BP complex; experiment: Fluid-phase peptide inhibition of PS binding to b-C4BP, detected on MAb S-7-coated plates
# Procedure: as §1, with “monoclonal” for “polyclonal”, “biotinylated-C4BP (b-C4BP), PS” for “C4BP, biotinylated-PS (b-PS)”, “0.5” for “3”, “1.0” for “0.6”, “MAb S-7 (ATCC No. HB 80819).” for “anti-C4BP IgG polyclonal antibody.”, “MAb S-7-antibody-coated” for “C4BP-antibody-coated”
# [5] = target: T2, C4BP; conditions: in vitro; cited from earlier work
# [6] = target: T3, C4b binding protein; experiment: Competition ELISA, peptide preincubated with b-C4BP, PS-coated wells
# [7] = target: T3, C4b binding protein; experiment: Fluid-phase competition of b-C4BP, PS and peptide; capture on MAb S-7
# [8] = target: T3, C4b binding protein; experiment: Fluid-phase competition of C4BP, b-PS and peptide; capture on anti-C4BP polyclonal IgG
molecule,measurement,setting,value
CC[C@H](C)[C@@H]1NC(=O)[C@H](CO)NC(=O)[C@H](C)NC(=O)CNC(=O)[C@H](CCC(N)=O)NC(=O)[C@H](CCCCN)NC(=O)[C@H](CCSC)NC(=O)[C@H](CC(C)C)NC(=O)[C@H](CC(N)=O)NC(=O)[C@H](Cc2c[nH]c3ccccc23)NC(=O)[C@H](CO)NC(=O)[C@H](CCCNC(=N)N)NC(=O)[C@H]([C@@H](C)CC)NC(=O)[C@@H](N)CSSC[C@@H](C(N)=O)NC(=O)[C@H](Cc2c[nH]cn2)NC(=O)[C@H](CCCCN)NC(=O)[C@H](CC(N)=O)NC(=O)[C@H](CCC(N)=O)NC(=O)[C@H](CCCCN)NC(=O)[C@H](CCC(=O)O)NC(=O)[C@H](CCC(N)=O)NC(=O)[C@H]([C@@H](C)CC)NC(=O)[C@H]([C@@H](C)CC)NC(=O)[C@H](CCC(=O)O)NC(=O)[C@H](CCCCN)NC1=O [PSP-loop] (H-CIRSWNLMKQGASIKEIIQEKQNKHC-NH2; disulfide 1-26; N-terminus assumed),IC90,[1],50 µM
same,IC90,[2],~400 µM
same,peptide concentration that completely inhibits the binding of PS to C4BP,[3],approximately 250 µM
same,IC90,[4],~100 µM
GVQLDLDEAI [synthetic peptide derived from the carboxy terminal region of protein S (residues 605 to 614 of mature PS)],effect on the interaction of protein S with C4BP,[5],inhibits the interaction of protein S with C4BP in vitro
CC[C@H](C)[C@H](NC(=O)CNC(=O)[C@@H](N)CO)C(=O)N[C@@H](CCCCN)C(=O)N[C@@H](CCCCN)C(=O)N[C@H](C(=O)N[C@H](C(=O)N[C@@H](CCC(N)=O)C(=O)N[C@@H](CCC(=O)O)C(=O)N[C@@H](CCCCN)C(=O)N[C@@H](CCC(N)=O)C(=O)N[C@@H](CC(N)=O)C(=O)N[C@@H](CCCCN)C(=O)N[C@@H](CS)C(N)=O)[C@@H](C)CC)[C@@H](C)CC [PSP-424K] (H-SGIKKIIQEKQNKC-NH2),IC90,"[1]; b-C4BP 1 µg/ml, PS-coated wells, peptide 0 - 500 µM, read-out: IC90",~250 µM
same,IC50,"[1]; b-C4BP 1 µg/ml, PS-coated wells, peptide 0 - 500 µM, read-out: half-maximal inhibitory concentration (IC50)",~50 µM
same,inhibition of the binding of b-PS to C4BP,[2]; compared with PSP-loop,also inhibitory but with lower effectiveness
same,IC50,"[4]; b-C4BP 0.5 µg/ml, PS 1.0 µg/ml, peptide 0 - 500 µM",~50 µM
same,IC90,"[4]; b-C4BP 0.5 µg/ml, PS 1.0 µg/ml, peptide 0 - 500 µM, read-out: IC90",~250 µM
"CIRSWNLMKQGASIKEIIQEKQNKHC-NH2 (cysteine pairing not given here, also called loop peptide) [PSP-loop]",IC50,[6],~15 µM
same,IC90,[6],50 µM
same,IC50,[7],~35 µM
same,IC50,[8],~40 µM
